According to ChEMBL document CHEMBL4507276 (2021):

Experiments:
[1] = system: Receptor-type tyrosine-protein kinase FLT3 (Homo sapiens), P36888 [UNDEFINED MUTATION]; settings: Compound concentration 1000.0 nM
[2] = molecular target: Hepatocyte growth factor receptor (Homo sapiens) (UniProt P08581); settings: Compound concentration 1000.0 nM
[3] = molecular target: Wee1-like protein kinase (Homo sapiens) (UniProt P30291); settings: Compound concentration 1000.0 nM
[4] = molecular target: T1, Tyrosine-protein kinase receptor TYRO3 (Homo sapiens) (UniProt Q06418); settings: Compound concentration 1000.0 nM
T1 sequence (whole entry): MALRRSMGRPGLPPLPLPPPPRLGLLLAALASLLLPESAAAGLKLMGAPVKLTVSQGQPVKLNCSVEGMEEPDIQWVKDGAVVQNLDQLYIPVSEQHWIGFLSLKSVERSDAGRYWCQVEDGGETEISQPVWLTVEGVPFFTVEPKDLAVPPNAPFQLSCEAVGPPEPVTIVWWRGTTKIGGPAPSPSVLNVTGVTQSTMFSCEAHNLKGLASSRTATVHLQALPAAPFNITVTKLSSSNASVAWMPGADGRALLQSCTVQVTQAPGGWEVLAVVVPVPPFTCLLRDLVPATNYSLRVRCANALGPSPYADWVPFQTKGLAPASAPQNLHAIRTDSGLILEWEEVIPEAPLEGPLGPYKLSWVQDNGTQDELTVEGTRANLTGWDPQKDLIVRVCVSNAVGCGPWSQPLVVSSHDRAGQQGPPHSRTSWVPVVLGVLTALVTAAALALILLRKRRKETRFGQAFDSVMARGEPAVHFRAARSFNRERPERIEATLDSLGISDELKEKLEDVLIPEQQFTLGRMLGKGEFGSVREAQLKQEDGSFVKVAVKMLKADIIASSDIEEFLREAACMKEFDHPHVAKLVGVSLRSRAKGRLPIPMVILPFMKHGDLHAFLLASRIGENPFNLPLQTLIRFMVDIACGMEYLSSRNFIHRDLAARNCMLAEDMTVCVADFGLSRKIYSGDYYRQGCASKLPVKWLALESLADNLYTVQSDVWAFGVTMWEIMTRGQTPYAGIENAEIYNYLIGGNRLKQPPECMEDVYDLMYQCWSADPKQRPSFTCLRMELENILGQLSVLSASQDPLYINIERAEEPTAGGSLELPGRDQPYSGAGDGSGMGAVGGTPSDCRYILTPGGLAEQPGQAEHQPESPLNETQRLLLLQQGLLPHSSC

[5] = molecular target: Insulin receptor (Homo sapiens) (UniProt P06213); settings: Compound concentration 1000.0 nM
[6] = molecular target: Cyclin-dependent kinase 9 (Homo sapiens) (UniProt P50750); settings: Compound concentration 1000.0 nM
[7] = molecular target: Dual specificity testis-specific protein kinase 1 (Homo sapiens) (UniProt Q15569); settings: Compound concentration 1000.0 nM
[8] = molecular target: Histamine H1 receptor (Homo sapiens) (UniProt P35367); settings: Compound concentration 10.0 uM
[9] = system: T2, Receptor-type tyrosine-protein kinase FLT3 (Homo sapiens), P36888 [D835Y]; settings: Compound concentration 1000.0 nM
T2 sequence (whole entry): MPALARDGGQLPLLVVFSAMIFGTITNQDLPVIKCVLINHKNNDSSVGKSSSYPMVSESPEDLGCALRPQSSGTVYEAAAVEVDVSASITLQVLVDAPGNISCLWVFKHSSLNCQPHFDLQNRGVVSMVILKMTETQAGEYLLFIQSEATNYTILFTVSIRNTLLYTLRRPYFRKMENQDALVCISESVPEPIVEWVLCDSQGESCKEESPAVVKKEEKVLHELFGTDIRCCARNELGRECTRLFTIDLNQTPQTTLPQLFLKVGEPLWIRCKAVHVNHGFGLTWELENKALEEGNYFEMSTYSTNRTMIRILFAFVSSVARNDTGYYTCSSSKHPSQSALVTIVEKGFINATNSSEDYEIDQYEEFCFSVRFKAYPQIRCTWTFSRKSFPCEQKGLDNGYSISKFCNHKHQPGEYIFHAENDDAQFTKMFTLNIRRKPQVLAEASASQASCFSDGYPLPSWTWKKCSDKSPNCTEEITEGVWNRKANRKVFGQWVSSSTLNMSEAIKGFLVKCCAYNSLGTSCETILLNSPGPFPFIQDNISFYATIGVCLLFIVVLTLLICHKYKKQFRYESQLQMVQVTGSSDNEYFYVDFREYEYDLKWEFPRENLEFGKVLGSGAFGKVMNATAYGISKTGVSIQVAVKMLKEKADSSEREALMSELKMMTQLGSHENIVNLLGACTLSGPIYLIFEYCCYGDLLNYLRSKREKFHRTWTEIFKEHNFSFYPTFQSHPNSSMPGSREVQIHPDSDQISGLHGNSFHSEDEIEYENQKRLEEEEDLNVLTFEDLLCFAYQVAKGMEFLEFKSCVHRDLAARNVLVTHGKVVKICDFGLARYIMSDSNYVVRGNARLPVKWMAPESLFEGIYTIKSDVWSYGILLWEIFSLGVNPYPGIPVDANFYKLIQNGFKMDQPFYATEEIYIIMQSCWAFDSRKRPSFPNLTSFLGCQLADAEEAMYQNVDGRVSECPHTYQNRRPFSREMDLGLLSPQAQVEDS

[10] = molecular target: Cyclin-dependent kinase 11A (Homo sapiens) (UniProt Q9UQ88); settings: Compound concentration 1000.0 nM
[11] = molecular target: Serine/threonine-protein kinase PLK1 (Homo sapiens) (UniProt P53350); settings: Compound concentration 1000.0 nM
[12] = molecular target: 3-phosphoinositide-dependent protein kinase 1 (Homo sapiens) (UniProt O15530); settings: Compound concentration 1000.0 nM
Chain of 3-phosphoinositide-dependent protein kinase 1 (Homo sapiens) (O15530 whole entry): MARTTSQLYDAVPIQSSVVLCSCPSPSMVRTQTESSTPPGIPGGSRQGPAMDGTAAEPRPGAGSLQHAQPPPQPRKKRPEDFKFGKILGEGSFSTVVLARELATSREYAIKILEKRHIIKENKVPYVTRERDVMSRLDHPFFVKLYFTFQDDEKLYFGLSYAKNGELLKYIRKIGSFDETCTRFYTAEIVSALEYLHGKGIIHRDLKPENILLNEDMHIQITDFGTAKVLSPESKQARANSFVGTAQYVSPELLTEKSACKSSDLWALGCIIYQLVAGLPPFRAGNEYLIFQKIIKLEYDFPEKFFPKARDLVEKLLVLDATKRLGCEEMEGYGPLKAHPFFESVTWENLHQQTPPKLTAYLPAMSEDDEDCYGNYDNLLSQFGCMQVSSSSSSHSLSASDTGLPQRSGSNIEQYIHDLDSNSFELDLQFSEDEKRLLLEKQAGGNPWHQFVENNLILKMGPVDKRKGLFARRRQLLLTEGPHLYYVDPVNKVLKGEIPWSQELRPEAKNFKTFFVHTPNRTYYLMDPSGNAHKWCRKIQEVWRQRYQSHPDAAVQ

Chain of Insulin receptor (Homo sapiens) (P06213 28-758 limits assumed): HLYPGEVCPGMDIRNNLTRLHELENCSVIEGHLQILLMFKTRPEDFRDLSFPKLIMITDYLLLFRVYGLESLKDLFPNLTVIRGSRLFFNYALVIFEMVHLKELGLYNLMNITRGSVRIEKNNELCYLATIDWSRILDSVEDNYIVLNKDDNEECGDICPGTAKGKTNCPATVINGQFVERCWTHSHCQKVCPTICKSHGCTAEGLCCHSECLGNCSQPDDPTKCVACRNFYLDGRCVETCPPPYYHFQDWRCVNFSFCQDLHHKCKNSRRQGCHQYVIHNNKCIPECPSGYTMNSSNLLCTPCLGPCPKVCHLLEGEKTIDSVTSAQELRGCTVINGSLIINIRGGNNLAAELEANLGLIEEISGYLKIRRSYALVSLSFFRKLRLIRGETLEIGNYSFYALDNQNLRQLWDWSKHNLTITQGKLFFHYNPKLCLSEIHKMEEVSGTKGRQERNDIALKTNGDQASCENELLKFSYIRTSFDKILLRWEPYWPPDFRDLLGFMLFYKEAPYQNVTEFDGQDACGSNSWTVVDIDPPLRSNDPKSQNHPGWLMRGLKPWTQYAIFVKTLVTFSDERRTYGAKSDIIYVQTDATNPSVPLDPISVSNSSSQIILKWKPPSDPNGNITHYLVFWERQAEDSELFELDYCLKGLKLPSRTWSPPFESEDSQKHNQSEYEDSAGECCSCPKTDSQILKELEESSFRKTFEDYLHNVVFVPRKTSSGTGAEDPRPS
Chain of Insulin receptor (Homo sapiens) (P06213 763-1382 limits assumed): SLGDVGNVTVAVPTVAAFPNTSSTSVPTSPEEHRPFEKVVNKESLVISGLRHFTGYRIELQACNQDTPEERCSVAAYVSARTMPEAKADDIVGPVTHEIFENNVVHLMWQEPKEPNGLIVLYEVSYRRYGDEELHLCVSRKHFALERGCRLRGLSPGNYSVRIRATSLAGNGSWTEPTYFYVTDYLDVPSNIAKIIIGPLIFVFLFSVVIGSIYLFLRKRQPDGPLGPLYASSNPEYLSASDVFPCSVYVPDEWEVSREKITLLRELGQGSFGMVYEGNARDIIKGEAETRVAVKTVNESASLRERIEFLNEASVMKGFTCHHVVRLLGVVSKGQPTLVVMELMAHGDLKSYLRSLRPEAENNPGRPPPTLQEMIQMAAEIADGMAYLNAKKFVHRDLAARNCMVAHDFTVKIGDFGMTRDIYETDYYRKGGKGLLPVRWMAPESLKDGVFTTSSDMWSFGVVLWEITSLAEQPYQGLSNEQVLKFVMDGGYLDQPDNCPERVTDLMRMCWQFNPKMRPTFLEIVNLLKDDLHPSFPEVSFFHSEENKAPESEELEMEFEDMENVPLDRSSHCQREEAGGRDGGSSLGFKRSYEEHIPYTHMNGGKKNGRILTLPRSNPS
Chain of Cyclin-dependent kinase 11A (Homo sapiens) (Q9UQ88 whole entry): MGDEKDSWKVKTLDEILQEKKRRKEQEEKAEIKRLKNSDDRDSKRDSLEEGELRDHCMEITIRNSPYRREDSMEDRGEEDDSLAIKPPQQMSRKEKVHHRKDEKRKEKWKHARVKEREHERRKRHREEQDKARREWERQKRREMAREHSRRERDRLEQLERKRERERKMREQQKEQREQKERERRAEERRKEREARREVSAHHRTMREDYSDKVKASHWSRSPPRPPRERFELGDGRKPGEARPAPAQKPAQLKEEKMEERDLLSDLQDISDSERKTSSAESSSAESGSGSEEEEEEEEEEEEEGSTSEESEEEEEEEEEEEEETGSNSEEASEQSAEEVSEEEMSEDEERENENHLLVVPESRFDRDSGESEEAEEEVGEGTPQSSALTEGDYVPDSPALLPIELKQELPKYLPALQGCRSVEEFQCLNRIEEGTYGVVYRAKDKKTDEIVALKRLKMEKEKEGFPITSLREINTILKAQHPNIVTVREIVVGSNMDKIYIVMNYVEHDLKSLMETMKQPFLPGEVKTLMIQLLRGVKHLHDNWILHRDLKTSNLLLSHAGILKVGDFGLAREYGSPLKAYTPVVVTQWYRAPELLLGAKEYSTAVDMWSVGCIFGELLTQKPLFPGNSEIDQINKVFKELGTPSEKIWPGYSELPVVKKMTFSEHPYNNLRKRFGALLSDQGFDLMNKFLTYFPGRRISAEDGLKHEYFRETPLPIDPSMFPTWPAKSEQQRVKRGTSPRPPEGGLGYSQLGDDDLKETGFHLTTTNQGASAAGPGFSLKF
Chain of Hepatocyte growth factor receptor (Homo sapiens) (P08581 whole entry): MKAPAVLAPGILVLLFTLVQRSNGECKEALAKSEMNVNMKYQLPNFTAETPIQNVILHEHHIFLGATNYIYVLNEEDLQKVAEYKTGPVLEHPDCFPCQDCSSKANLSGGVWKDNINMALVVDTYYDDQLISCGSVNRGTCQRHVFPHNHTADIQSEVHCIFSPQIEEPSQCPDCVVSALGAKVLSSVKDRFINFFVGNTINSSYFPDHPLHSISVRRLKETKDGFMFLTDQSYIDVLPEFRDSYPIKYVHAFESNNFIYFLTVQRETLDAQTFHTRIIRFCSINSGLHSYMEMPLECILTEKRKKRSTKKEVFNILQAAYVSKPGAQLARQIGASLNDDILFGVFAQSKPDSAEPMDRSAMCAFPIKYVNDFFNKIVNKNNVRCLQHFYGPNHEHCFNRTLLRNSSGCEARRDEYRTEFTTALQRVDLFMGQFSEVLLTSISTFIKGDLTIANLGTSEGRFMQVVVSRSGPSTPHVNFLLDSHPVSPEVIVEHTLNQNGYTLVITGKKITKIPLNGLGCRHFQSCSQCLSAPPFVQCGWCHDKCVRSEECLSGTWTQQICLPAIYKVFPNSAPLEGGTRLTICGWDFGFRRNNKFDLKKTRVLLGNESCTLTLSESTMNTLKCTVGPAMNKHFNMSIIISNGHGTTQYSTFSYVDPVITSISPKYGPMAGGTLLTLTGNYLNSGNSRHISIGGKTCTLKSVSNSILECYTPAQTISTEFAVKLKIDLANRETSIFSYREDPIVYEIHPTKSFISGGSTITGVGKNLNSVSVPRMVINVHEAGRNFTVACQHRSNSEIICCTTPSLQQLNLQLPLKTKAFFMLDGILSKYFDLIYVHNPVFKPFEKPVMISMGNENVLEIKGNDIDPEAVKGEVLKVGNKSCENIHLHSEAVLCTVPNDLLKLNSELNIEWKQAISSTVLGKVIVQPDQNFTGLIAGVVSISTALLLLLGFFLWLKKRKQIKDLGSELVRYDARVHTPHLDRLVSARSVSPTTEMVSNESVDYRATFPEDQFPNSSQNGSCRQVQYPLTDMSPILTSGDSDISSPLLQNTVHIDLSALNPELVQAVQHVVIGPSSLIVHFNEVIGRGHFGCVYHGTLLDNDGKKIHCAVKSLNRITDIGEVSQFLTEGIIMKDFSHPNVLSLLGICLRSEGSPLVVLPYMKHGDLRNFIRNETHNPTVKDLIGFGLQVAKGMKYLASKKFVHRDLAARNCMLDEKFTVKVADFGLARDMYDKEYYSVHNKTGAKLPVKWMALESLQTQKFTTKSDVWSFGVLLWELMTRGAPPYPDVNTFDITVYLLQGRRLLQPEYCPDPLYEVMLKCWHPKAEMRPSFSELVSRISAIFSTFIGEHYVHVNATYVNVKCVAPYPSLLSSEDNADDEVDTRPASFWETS
Chain of Cyclin-dependent kinase 9 (Homo sapiens) (P50750 whole entry): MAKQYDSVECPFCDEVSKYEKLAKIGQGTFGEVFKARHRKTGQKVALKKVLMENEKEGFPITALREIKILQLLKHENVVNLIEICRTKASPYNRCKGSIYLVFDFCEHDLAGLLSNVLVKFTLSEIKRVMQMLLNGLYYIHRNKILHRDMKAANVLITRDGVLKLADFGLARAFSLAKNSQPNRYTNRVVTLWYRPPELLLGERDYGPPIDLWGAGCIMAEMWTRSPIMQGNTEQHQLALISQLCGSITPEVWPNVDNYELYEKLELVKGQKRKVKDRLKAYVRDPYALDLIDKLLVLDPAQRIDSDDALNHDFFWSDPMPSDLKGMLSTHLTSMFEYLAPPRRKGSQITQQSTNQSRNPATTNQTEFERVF
Chain of Dual specificity testis-specific protein kinase 1 (Homo sapiens) (Q15569 whole entry, looked up): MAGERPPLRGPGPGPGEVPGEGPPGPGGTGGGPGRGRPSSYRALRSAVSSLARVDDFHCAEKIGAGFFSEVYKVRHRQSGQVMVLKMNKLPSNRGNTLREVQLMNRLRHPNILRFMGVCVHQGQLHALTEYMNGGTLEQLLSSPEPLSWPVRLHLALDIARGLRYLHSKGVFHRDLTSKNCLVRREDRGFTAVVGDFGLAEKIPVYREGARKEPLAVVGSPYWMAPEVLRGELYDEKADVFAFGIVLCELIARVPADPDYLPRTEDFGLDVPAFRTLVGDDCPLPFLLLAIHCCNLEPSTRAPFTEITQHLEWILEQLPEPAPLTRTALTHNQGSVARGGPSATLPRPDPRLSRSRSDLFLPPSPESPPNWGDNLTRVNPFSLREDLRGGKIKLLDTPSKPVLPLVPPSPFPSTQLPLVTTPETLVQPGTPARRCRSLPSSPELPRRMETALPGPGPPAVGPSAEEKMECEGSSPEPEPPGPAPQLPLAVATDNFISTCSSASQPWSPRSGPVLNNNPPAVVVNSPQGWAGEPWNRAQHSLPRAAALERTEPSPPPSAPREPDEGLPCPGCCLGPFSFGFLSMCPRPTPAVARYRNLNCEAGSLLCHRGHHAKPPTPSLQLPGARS

CN(C)C(=O)Cn1cc(-c2nc(C3(c4ccc(-c5cnc(N)nc5)cc4)CC3)no2)cn1 [BI 0153]
inactive: residual activity [1] 100% | residual activity [2] 73% | residual activity [3] 87% | residual activity [4] 83% | residual activity [5] 90% | residual activity [6] 100% | residual activity [7] 94% | inhibition [8] 8.78% | residual activity [9] 100% | residual activity [10] 89% | residual activity [11] 82% | residual activity [12] 82%

CN(C)C(=O)Cn1cc(-c2nc([C@@](C)(c3ccc(-c4cnc(N)nc4)cc3)C3CC3)no2)cn1 [BI 665915]
inactive: residual activity [1] 100% | residual activity [2] 100% | residual activity [3] 94% | residual activity [4] 100% | residual activity [5] 89% | residual activity [6] 96% | residual activity [7] 90% | inhibition [8] 7.66% | residual activity [9] 85% | residual activity [10] 100% | residual activity [11] 77% | residual activity [12] 99%
